Data from patent publication US8975398B2, “NAMPT inhibitors” (AbbVie Inc., priority 2012, dated 2015).

Key:
NAMPT = NAMPT (Homo sapiens, UniProt P43490); assay: Time-Resolved Fluorescence Resonance Energy Transfer (TR-FRET) Binding Assay of NAMPT with PRPP; details: 2 nM NAMPT, 2 nM probe, 200 uM PRPP and 2.5 mM ATP, equilibrated 16 hours
Method in brief: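 Binding measured by TR-FRET after a 16-hour equilibration meant to permit enzymatic compound modification. Substrates present at 200 uM PRPP and 2.5 mM ATP, with 2 nM enzyme, 2 nM probe, 1 nM Tb-anti-His antibody and 2% DMSO final.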

[1] = biological target: NAMPT (human, recombinant, C-terminally His-tagged) (Homo sapiens, UniProt P43490); assay: Time-Resolved Fluorescence Resonance Energy Transfer (TR-FRET) Binding Assay of NAMPT; details: 6.8 nM NAMPT, 200 nM probe, equilibrated 3 hours, absence of substrates
Method in brief: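 Probe displacement measured by TR-FRET (Ex 337 nm; 520/495 nm ratio) after 3 h room-temperature equilibration of compound with 6.8 nM His-tagged human NAMPT, 1 nM Tb-anti-His antibody and 200 nM Oregon Green 488 nicotinamide-site probe, pH 7.5 HEPES buffer, 2% DMSO. Control-normalized data fit four-parameter logistic for IC50.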

NAMPT (human, recombinant, C-terminally His-tagged), sequence (P43490 whole entry): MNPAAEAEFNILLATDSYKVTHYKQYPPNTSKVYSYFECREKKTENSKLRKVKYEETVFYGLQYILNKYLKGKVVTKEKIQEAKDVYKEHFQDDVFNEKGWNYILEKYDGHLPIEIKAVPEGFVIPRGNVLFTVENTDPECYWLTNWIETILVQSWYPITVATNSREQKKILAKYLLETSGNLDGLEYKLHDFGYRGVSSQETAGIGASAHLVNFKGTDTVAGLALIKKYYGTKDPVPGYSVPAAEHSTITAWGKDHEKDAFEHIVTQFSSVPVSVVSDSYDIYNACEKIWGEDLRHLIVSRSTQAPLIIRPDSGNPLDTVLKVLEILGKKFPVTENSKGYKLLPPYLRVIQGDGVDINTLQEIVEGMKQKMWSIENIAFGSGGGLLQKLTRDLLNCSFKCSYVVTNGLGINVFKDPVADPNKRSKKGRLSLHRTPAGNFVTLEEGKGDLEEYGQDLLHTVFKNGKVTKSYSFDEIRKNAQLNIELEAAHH
NAMPT, sequence (P43490 whole entry): as above

Row | IC50 (NAMPT) [nM] | IC50 [1] [nM] | SMILES
1 | 86.2 | 149 | O=C(Nc1ccc(OC2CCN(C(=O)c3cccc(C(F)(F)F)c3)CC2)cc1)C1CN(c2ccnnc2)C1 [Example 285, 1-(pyridazin-4-yl)-N-[4-({1-[3-(trifluoromethyl)benzoyl]piperidin-4-yl}oxy)phenyl]azetidine-3-carboxamide]
2 | 66.4 | 127 | O=C(Nc1ccc(OC2CCN(C(=O)c3cccc(F)c3)CC2)cc1)C1CN(c2ccnnc2)C1 [Example 286, N-(4-{[1-(3-fluorobenzoyl)piperidin-4-yl]oxy}phenyl)-1-(pyridazin-4-yl)azetidine-3-carboxamide]
3 | 63.2 | 125 | O=C(Nc1ccc(OC2CCN(C(=O)c3ccc(C(F)(F)F)cc3)CC2)cc1)C1CN(c2ccnnc2)C1 [Example 287, 1-(pyridazin-4-yl)-N-[4-({1-[4-(trifluoromethyl)benzoyl]piperidin-4-yl}oxy)phenyl]azetidine-3-carboxamide]
4 | 19.5 | 44.9 | O=C(Nc1ccc(OC2CCN(C(=O)Cc3cccc(F)c3)CC2)cc1)C1CN(c2ccnnc2)C1 [Example 288, N-[4-({1-[(3-fluorophenyl)acetyl]piperidin-4-yl}oxy)phenyl]-1-(pyridazin-4-yl)azetidine-3-carboxamide]
5 | 32.1 | 41.6 | O=C(Nc1ccc(OC2CCN(C(=O)c3ccccc3F)CC2)cc1)C1CN(c2ccnnc2)C1 [Example 289, N-(4-{[1-(2-fluorobenzoyl)piperidin-4-yl]oxy}phenyl)-1-(pyridazin-4-yl)azetidine-3-carboxamide]
6 | 45.7 | 99.3 | O=C(Nc1ccc(OC2CCN(C(=O)c3ccc(OC(F)(F)F)cc3)CC2)cc1)C1CN(c2ccnnc2)C1 [Example 290, 1-(pyridazin-4-yl)-N-[4-({1-[4-(trifluoromethoxy)benzoyl]piperidin-4-yl}oxy)phenyl]azetidine-3-carboxamide]
7 | 18.2 | 45.6 | O=C(Nc1ccc(OC2CCN(C(=O)Cc3cc(F)cc(F)c3)CC2)cc1)C1CN(c2ccnnc2)C1 [Example 291, N-[4-({1-[(3,5-difluorophenyl)acetyl]piperidin-4-yl}oxy)phenyl]-1-(pyridazin-4-yl)azetidine-3-carboxamide]
8 | 64.7 | 99 | O=C(Nc1ccc(OC2CCN(C(=O)c3cccc(OC(F)(F)F)c3)CC2)cc1)C1CN(c2ccnnc2)C1 [Example 292, 1-(pyridazin-4-yl)-N-[4-({1-[3-(trifluoromethoxy)benzoyl]piperidin-4-yl}oxy)phenyl]azetidine-3-carboxamide]
9 | 25.3 | 78.2 | O=C(Nc1ccc(OC2CCN(C(=O)CC3CC3)CC2)cc1)C1CN(c2ccnnc2)C1 [Example 293, N-(4-{[1-(cyclopropylacetyl)piperidin-4-yl]oxy}phenyl)-1-(pyridazin-4-yl)azetidine-3-carboxamide]
10 | 55.1 | 112 | CC(C)C(=O)N1CCC(Oc2ccc(NC(=O)C3CN(c4ccnnc4)C3)cc2)CC1 [Example 294, N-(4-{[1-(2-methylpropanoyl)piperidin-4-yl]oxy}phenyl)-1-(pyridazin-4-yl)azetidine-3-carboxamide]
11 | 51 | 77.6 | O=C(Nc1ccc(OC2CCN(C(=O)c3cccc(Cl)c3)CC2)cc1)C1CN(c2ccnnc2)C1 [Example 295, N-(4-{[1-(3-chlorobenzoyl)piperidin-4-yl]oxy}phenyl)-1-(pyridazin-4-yl)azetidine-3-carboxamide]
12 | 57.1 | 149 | O=C(Nc1ccc(OC2CCN(C(=O)c3ccccn3)CC2)cc1)C1CN(c2ccnnc2)C1 [Example 296, 1-(pyridazin-4-yl)-N-(4-{[1-(pyridin-2-ylcarbonyl)piperidin-4-yl]oxy}phenyl)azetidine-3-carboxamide]
13 | 47 | 104 | O=C(Nc1ccc(OC2CCN(C(=O)c3ccc(Cl)cc3)CC2)cc1)C1CN(c2ccnnc2)C1 [Example 297, N-(4-{[1-(4-chlorobenzoyl)piperidin-4-yl]oxy}phenyl)-1-(pyridazin-4-yl)azetidine-3-carboxamide]
14 | 61.1 | 192 | O=C(Nc1ccc(OC2CCN(C(=O)C3CCOC3)CC2)cc1)C1CN(c2ccnnc2)C1 (stereo not drawn) [Example 298, 1-(pyridazin-4-yl)-N-(4-{[1-(tetrahydrofuran-3-ylcarbonyl)piperidin-4-yl]oxy}phenyl)azetidine-3-carboxamide]
15 | 86.9 | 154 | O=C(Nc1ccc(OC2CCN(C(=O)c3cc(F)cc(F)c3)CC2)cc1)C1CN(c2ccnnc2)C1 [Example 299, N-(4-{[1-(3,5-difluorobenzoyl)piperidin-4-yl]oxy}phenyl)-1-(pyridazin-4-yl)azetidine-3-carboxamide]
16 | 39.1 | 64.2 | CCC(C)(C)C(=O)N1CCC(Oc2ccc(NC(=O)C3CN(c4ccnnc4)C3)cc2)CC1 [Example 300, N-(4-{[1-(2,2-dimethylbutanoyl)piperidin-4-yl]oxy}phenyl)-1-(pyridazin-4-yl)azetidine-3-carboxamide]
17 | 48.3 | 143 | O=C(Nc1ccc(OC2CCN(C(=O)C3CC3)CC2)cc1)C1CN(c2ccnnc2)C1 [Example 301, N-(4-{[1-(cyclopropylcarbonyl)piperidin-4-yl]oxy}phenyl)-1-(pyridazin-4-yl)azetidine-3-carboxamide]
18 | 48.3 | 150 | O=C(Nc1ccc(OC2CCN(C(=O)C3CCCO3)CC2)cc1)C1CN(c2ccnnc2)C1 (stereo not drawn) [Example 302, 1-(pyridazin-4-yl)-N-(4-{[1-(tetrahydrofuran-2-ylcarbonyl)piperidin-4-yl]oxy}phenyl)azetidine-3-carboxamide]
19 | 15.5 | 30.9 | O=C(Nc1ccc(OC2CCN(C(=O)c3cccs3)CC2)cc1)C1CN(c2ccnnc2)C1 [Example 303, 1-(pyridazin-4-yl)-N-(4-{[1-(thiophen-2-ylcarbonyl)piperidin-4-yl]oxy}phenyl)azetidine-3-carboxamide]
20 | 24.2 | 55.4 | Cc1ccc(C(=O)N2CCC(Oc3ccc(NC(=O)C4CN(c5ccnnc5)C4)cc3)CC2)s1 [Example 304, N-[4-({1-[(5-methylthiophen-2-yl)carbonyl]piperidin-4-yl}oxy)phenyl]-1-(pyridazin-4-yl)azetidine-3-carboxamide]
21 | 35 | 109 | O=C(Nc1ccc(OC2CCN(C(=O)Cc3cccc(C(F)(F)F)c3)CC2)cc1)C1CN(c2ccnnc2)C1 [Example 305, 1-(pyridazin-4-yl)-N-{4-[(1-{[3-(trifluoromethyl)phenyl]acetyl}piperidin-4-yl)oxy]phenyl}azetidine-3-carboxamide]
22 | 46.3 | 112 | O=C(Nc1ccc(OC2CCN(C(=O)C3CCOCC3)CC2)cc1)C1CN(c2ccnnc2)C1 [Example 306, 1-(pyridazin-4-yl)-N-(4-{[1-(tetrahydro-2H-pyran-4-ylcarbonyl)piperidin-4-yl]oxy}phenyl)azetidine-3-carboxamide]
23 | 15.9 | 37.7 | CC[C@H](C)C(=O)N1CCC(Oc2ccc(NC(=O)C3CN(c4ccnnc4)C3)cc2)CC1 [Example 307, N-[4-({1-[(2S)-2-methylbutanoyl]piperidin-4-yl}oxy)phenyl]-1-(pyridazin-4-yl)azetidine-3-carboxamide]
24 | 18.4 | 36.9 | O=C(Nc1ccc(OC2CCN(C(=O)Cc3ccccc3F)CC2)cc1)C1CN(c2ccnnc2)C1 [Example 308, N-[4-({1-[(2-fluorophenyl)acetyl]piperidin-4-yl}oxy)phenyl]-1-(pyridazin-4-yl)azetidine-3-carboxamide]
25 | 0.293 | 4150 | CC(C)Cn1cc(-c2ccc(C(=O)NC3CN(c4cccnn4)C3)o2)cn1 [Example 309, 5-[1-(2-methylpropyl)-1H-pyrazol-4-yl]-N-[1-(pyridazin-3-yl)azetidin-3-yl]furan-2-carboxamide]
26 | 5.37 | 456 | CC(C)C(=O)N1CCC(c2ccc(NC(=O)[C@H]3CCN(c4cccnn4)C3)cc2)CC1 [Example 310, (3S)—N-{4-[1-(2-methylpropanoyl)piperidin-4-yl]phenyl}-1-(pyridazin-3-yl)pyrrolidine-3-carboxamide]
27 | 3.96 | 30.2 | O=C(Nc1ccc(C2CCN(C(=O)c3ccccc3)CC2)cc1)[C@H]1CCN(c2cccnn2)C1 [Example 311, (3S)—N-[4-(1-benzoylpiperidin-4-yl)phenyl]-1-(pyridazin-3-yl)pyrrolidine-3-carboxamide]
28 | 8.94 | 1130 | O=C(Nc1ccc(C2CCN(C(=O)CC3CCOCC3)CC2)cc1)[C@H]1CCN(c2cccnn2)C1 [Example 312, (3S)-1-(pyridazin-3-yl)-N-{4-[1-(tetrahydro-2H-pyran-4-ylacetyl)piperidin-4-yl]phenyl}pyrrolidine-3-carboxamide]
29 | 4.13 | 217 | CC(C)(C)C(=O)N1CCC(c2ccc(NC(=O)[C@H]3CCN(c4cccnn4)C3)cc2)CC1 [Example 313, (3S)—N-{4-[1-(2,2-dimethylpropanoyl)piperidin-4-yl]phenyl}-1-(pyridazin-3-yl)pyrrolidine-3-carboxamide]
30 | 0.572 | 3860 | CC(C)(C)OC(=O)N1CCC(c2ccc(C(=O)NC3CN(c4cccnn4)C3)cc2)CC1 [Example 314, tert-butyl 4-(4-{[1-(pyridazin-3-yl)azetidin-3-yl]carbamoyl}phenyl)piperidine-1-carboxylate]
